Assay results: PMC10599993, “The PTPN2/PTPN1 inhibitor ABBV-CLS-484 unleashes potent anti-tumour immunity” (Nature, 2023)
pIC50: −log10 of the molar value.

What was measured:
Assay in all cases: biochemical
Design in all cases: Kinase selectivity panel, IC50 of AC484 (Supplementary Table 1)
ALK = ALK (Homo sapiens, UniProt Q9UM73)
Akt1 = Akt1 (Homo sapiens, UniProt P31749)
BMX = BMX (Homo sapiens, UniProt P51813)
Blk = Blk (Homo sapiens, UniProt P51451)
CAMKK2 = CAMKK2 (Homo sapiens, UniProt Q96RR4)
CDK9/Cyclin K = CDK9/Cyclin K (Homo sapiens, UniProt P50750)
ErbB4 = ErbB4 (Homo sapiens, UniProt Q15303)
IGF1R = IGF1R (Homo sapiens, UniProt P08069)
IRAK4 = IRAK4 (Homo sapiens, UniProt Q9NWZ3)
ITK = ITK (Homo sapiens, UniProt Q08881)
Chain of ITK (Q08881 whole entry): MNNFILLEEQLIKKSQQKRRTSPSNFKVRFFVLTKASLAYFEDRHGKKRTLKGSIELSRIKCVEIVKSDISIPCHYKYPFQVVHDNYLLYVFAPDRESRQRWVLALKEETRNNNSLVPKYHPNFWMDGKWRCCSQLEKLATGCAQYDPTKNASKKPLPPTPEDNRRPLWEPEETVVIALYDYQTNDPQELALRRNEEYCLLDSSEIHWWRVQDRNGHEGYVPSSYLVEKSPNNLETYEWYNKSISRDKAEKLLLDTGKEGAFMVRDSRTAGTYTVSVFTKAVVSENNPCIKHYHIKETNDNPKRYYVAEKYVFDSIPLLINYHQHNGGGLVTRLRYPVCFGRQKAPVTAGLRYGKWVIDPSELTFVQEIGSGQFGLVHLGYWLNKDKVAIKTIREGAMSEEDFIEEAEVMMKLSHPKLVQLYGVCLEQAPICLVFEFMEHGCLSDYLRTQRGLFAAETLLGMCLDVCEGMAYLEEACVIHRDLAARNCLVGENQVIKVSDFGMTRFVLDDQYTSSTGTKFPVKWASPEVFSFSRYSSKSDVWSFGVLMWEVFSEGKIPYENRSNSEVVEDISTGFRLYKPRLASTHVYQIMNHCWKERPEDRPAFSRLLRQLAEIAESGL

LYN-B = target: T1, LYN-B (Homo sapiens, UniProt P07948)
T1 construct: isoform B

Lck = Lck (Homo sapiens, UniProt P06239)
MAP2K3 = MAP2K3 (Homo sapiens, UniProt P46734)
MAP4K3 = MAP4K3 (Homo sapiens, UniProt Q8IVH8)
PAK4KD = target: T2, PAK4KD (Homo sapiens, UniProt O96013)
T2 construct: gene PAK4; kinase domain
T2 sequence (O96013 whole entry, the tested form may be a part): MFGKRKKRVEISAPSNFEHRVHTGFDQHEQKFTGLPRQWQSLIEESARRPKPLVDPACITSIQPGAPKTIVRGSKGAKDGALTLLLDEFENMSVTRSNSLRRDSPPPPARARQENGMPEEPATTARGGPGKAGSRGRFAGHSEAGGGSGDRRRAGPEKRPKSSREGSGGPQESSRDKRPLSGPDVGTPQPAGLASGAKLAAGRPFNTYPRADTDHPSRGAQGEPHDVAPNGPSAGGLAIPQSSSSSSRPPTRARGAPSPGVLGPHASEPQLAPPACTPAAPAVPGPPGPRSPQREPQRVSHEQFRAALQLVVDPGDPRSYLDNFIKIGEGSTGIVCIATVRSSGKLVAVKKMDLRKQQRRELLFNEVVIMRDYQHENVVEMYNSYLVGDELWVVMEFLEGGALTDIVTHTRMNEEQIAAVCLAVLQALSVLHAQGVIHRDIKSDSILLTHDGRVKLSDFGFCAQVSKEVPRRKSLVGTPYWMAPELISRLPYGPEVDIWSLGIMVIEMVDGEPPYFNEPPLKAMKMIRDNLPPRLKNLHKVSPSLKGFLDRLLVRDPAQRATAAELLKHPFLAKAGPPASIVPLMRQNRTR

PDGFRB = PDGFRB (Homo sapiens, UniProt P09619)
PKCbeta1 = target: T3, PKCbeta1 (Homo sapiens, UniProt P05771)
T3 construct: gene PRKCB; isoform beta1

PKCbeta2 = target: T4, PKCbeta2 (Homo sapiens, UniProt P05771)
T4 construct: gene PRKCB; isoform beta2

PKCepsilon = target: T5, PKCepsilon (Homo sapiens, UniProt Q02156)
T5 construct: gene PRKCE

Pim1 = Pim1 (Homo sapiens, UniProt P11309)
Chain of Pim1 (P11309 whole entry): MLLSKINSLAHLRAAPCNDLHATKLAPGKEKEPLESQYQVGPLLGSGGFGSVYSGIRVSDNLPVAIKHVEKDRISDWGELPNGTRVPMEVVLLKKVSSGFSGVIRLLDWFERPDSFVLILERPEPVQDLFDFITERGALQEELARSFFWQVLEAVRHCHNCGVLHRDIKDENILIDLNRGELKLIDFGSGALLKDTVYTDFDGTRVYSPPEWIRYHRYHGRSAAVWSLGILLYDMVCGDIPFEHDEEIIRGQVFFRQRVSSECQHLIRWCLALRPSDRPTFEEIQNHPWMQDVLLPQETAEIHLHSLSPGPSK

Plk3 = Plk3 (Homo sapiens, UniProt Q9H4B4)
RET = RET (Homo sapiens, UniProt P07949)
RIPK2 = RIPK2 (Homo sapiens, UniProt O43353)
Rsk2 = target: T6, Rsk2 (Homo sapiens, UniProt P51812)
T6 construct: gene RPS6KA3

Src = Src (Homo sapiens, UniProt P12931)
TBK1 = TBK1 (Homo sapiens, UniProt Q9UHD2)
Chain of TBK1 (Q9UHD2 whole entry): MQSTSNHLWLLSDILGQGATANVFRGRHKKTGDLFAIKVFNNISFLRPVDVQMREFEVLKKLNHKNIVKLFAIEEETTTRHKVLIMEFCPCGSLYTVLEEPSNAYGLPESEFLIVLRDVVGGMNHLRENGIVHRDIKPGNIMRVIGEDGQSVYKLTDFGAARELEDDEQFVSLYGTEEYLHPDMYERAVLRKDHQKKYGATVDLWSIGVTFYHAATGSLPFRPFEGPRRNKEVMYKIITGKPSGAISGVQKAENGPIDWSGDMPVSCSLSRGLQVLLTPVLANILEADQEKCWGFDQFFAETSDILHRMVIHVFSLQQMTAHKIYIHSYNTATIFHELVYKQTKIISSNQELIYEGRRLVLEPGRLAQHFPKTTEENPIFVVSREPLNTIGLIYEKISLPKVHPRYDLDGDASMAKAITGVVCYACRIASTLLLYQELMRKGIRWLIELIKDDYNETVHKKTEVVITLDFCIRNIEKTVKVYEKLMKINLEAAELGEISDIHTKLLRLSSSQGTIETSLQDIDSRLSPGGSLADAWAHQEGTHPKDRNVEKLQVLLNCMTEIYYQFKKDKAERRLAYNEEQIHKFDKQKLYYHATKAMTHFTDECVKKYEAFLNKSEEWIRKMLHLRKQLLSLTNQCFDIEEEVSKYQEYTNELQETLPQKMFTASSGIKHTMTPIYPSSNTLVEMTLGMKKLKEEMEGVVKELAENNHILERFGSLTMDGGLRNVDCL

TrkC = target: T7, TrkC (Homo sapiens, UniProt Q16288)
T7 construct: gene NTRK3

Zipk = target: T8, Zipk (Homo sapiens, UniProt O43293)
T8 construct: gene DAPK3

_PKCtheta = target: T9, _PKCtheta (Homo sapiens, UniProt Q04759)
T9 construct: gene PRKCQ

Measured: pIC50

Chain of ALK (Q9UM73 whole entry): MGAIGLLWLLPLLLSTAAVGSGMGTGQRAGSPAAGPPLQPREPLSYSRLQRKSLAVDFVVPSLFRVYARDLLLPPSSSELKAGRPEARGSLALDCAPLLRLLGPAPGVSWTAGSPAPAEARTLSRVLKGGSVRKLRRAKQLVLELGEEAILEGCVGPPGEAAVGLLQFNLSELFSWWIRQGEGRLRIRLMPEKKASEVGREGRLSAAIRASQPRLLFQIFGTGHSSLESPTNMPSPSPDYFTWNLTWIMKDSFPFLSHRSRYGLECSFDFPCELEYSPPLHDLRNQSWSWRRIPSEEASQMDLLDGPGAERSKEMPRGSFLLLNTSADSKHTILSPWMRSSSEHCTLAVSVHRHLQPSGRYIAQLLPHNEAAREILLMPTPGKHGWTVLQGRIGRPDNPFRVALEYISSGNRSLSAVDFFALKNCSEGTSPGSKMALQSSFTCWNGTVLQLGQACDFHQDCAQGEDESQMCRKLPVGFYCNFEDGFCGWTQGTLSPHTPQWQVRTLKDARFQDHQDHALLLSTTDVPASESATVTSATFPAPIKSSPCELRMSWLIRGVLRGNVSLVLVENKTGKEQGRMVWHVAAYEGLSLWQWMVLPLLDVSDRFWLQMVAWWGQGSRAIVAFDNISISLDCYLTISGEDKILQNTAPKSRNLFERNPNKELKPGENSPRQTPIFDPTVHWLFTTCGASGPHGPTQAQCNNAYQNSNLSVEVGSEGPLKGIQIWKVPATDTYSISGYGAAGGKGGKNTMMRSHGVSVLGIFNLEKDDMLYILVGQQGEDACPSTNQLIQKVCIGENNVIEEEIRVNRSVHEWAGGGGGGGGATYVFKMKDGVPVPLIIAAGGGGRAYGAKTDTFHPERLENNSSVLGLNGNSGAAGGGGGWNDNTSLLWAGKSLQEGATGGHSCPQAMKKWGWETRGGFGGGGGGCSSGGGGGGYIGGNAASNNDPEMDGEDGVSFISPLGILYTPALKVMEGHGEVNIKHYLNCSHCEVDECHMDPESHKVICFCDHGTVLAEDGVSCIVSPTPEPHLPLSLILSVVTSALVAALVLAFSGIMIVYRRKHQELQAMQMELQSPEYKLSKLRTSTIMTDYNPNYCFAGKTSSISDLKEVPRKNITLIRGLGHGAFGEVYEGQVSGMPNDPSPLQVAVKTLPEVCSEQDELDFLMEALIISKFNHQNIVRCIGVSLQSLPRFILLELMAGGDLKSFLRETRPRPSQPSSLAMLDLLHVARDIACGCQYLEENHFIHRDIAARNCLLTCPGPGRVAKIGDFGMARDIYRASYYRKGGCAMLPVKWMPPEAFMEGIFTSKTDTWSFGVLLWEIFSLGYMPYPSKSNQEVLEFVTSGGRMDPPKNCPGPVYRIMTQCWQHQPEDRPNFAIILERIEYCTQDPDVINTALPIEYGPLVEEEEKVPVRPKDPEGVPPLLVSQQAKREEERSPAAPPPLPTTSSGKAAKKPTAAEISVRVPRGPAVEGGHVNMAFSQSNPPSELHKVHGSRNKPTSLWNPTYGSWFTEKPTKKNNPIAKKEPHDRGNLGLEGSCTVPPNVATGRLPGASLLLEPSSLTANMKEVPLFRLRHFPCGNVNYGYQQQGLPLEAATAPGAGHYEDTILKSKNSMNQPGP
Chain of Akt1 (P31749 whole entry): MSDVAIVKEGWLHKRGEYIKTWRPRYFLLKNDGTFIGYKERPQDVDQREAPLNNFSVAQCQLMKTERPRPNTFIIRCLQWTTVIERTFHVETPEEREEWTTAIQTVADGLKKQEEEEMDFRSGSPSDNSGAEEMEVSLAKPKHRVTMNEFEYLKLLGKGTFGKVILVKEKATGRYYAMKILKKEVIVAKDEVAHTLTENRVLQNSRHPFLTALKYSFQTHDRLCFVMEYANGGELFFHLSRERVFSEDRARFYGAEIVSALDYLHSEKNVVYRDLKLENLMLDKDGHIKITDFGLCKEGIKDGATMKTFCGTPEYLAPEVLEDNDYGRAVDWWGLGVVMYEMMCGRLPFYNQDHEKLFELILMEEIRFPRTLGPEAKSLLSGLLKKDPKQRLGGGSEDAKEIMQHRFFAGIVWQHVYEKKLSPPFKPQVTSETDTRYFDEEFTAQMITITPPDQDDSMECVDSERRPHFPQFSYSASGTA
Chain of BMX (P51813 whole entry): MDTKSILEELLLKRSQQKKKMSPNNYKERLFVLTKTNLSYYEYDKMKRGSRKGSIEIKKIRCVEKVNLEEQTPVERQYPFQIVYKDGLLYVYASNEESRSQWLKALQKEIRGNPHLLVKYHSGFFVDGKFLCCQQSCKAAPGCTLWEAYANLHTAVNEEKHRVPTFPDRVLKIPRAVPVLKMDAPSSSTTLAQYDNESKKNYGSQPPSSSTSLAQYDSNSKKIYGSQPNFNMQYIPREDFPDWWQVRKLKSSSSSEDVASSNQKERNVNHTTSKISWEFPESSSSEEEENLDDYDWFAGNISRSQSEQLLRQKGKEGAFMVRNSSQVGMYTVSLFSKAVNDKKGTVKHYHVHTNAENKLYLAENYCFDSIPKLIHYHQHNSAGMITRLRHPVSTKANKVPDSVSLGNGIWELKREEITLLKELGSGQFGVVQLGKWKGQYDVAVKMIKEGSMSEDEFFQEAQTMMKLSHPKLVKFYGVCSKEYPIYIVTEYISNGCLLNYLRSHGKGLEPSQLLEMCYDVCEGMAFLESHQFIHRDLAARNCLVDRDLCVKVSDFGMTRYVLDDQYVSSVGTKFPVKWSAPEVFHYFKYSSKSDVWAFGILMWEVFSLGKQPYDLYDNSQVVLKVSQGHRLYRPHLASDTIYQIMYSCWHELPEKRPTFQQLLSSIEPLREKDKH

CC(C)CCN[C@@H]1CCc2cc(O)c(N3CC(=O)NS3(=O)=O)c(F)c2C1 [AC484, ABBV-CLS-484]
< 5.00: all assays above
